Measured values reported in patent US11807627B2, “Morphic forms of complement factor D inhibitors” (priority 2018, dated 2023).
≈ marks a conversion by molar mass, not a printed value.

Experiments:
[1] = Storage stability of Compound 3 forms (80° C., 40° C./75% RH, 25° C./60% RH, ambient); format: physicochemical; settings: 40° C./75% RH or 25° C./60% RH, capped or uncapped vial
Protocol: No changes by XRPD or HPLC purity were observed when the material was stored at 40° C./75% RH, 80° C. or under ambient conditions.

[2] = Solvent solubility screen by solvent addition (lyophilized material); format: physicochemical; settings: thermodynamic from solid
Protocol: A solvent solubility screen was conducted using 32 solvent systems. Approximately 360 mg of Compound 3 Form A was weighed into a 20 mL glass vial and dissolved using 18 mL of 1,4-dioxane. 0.5 mL of the solution was then dispensed into thirty-four 2 mL glass vials (approx. 10 mg per vial). The Compound 3 Form A solutions were then frozen (at −50° C.) and dried by lyophilization using a Lablyo mini freeze drier. Post-lyophilization, a sub-sample was taken and analyzed by XRPD. Material was successfully rendered amorphous by lyophilization.
The material produced from lyophilization was used for the solubility assessment. Solubility was estimated by a solvent addition technique. The solubility study was completed as follows: • Each solvent system was added to the appropriate vial in 5 volume aliquots until 100 volumes had been added or until the API dissolved; • Between each addition, samples were heated to 40° C. to check dissolution at elevated temperatures; • If 100 volumes of solvent were added without dissolution, solubility was calculated to be below this point.

[3] = Caco2 permeability and efflux ratio; format: in vitro ADME; settings: human, Caco-2; Caco2; read-out: Efflux ratio (B-A/A-B)
Caco2 = Caco2 permeability and efflux ratio; format: in vitro ADME; settings: A-B
[4] = pH experiments and SIF/SGF/FaSSIF/FeSSIF solubility (Examples 3 and 4); format: physicochemical
[5] = Solution stress testing (acid, base, oxidative degradation); format: physicochemical
[6] = ICH stability study of amorphous Compound 2; format: physicochemical
Description: Compound 2 stored in double LDPE bag with silica gel in aluminum receptacle with lid had the following stability characteristics described in Table 9.

Thermal stability by TGA = format: physicochemical; settings: to 150° C.
Protocol: TG analyses were performed using a TA Instruments Q5000 IR thermogravimetric analyzer. Temperature calibration was performed using nickel and Alumel™. Each sample was placed in an aluminum pan. The sample was hermetically sealed, the lid pierced, then inserted into the TG furnace. The furnace was heated under nitrogen. The method code on the thermogram is an abbreviation for the start and end temperature as well as the heating rate; e.g., […] means “from 25° C. to 350° C., at 10° C./min”.

[7] = Solid state stress testing (temperature, humidity, storage, photostability); format: physicochemical
[8] = Dose number and BCS classification; format: physicochemical
[9] = Thermogravimetric/differential thermal analysis (TG/DTA); format: physicochemical; settings: Table 22B
Protocol: Approximately, 5 mg of material was weighed into an open aluminium pan and loaded into a simultaneous thermogravimetric/differential thermal analyzer (TG/DTA) and held at room temperature. The sample was then heated at a rate of 10° C./min from 20° C. to 400° C. during which time the change in sample weight occurred was recorded along with any differential thermal events (DTA). Nitrogen was used as the purge gas at a flow rate of 300 cm^3/min.

[10] = Drying of isolated samples at 50° C. for approximately 24 hours; format: physicochemical
Protocol: Samples produced from thermal cycling, cooling and evaporation experiments were dried at 50° C. for approximately 24 hours to assess any de-solvation/dehydration. From temperature cycling experiments, 3 samples converted upon drying: • Acetonitrile sample converted from Form J to amorphous; • 40% Ethanol/60% Water (% v/v) converted from Form N to Form P; and • Methanol sample converted from Form O to amorphous.

[11] = Interconversion experiments: heat stress of forms (Table 6); format: physicochemical; settings: no solvent
Protocol: Saturated solutions of Compound 3 or solids generated from crystallization attempts were prepared. A small quantity of the sample was placed into an oven set at a specified temperature. The samples were monitored, microscopically, for signs of crystallization.

[12] = Interconversion experiments: competitive slurries (Example 2, Table 6); format: physicochemical
Protocol: A solution of Compound 3 and solvent/solvent system of interest was prepared. Solids persisted in solution. The samples were placed onto a stir plate at ambient (RT) or elevated (ET) temperatures. The samples were monitored to ensure that solids persisted during the slurry process. The solids were collected via vacuum filtration and dried under ambient conditions. […] At ambient temperature, Forms B and M are both present after almost a week of slurrying.

[13] = Vapor stress experiments at room temperature; format: physicochemical
Description: Compound 3 was placed into vials which were sealed into chambers containing organic solvents. The samples were kept under these conditions for a period of days and then checked for signs of morphology changes.

Structure (SMILES): CC(=O)c1nn(CC(=O)N2[C@H](C(=O)Nc3nc(Br)ccc3C)C[C@@]3(C)C[C@@H]23)c2ccc(-c3cnc(C)nc3)cc12 [Lyophilized Compound 3]
- Stability: recrystallization upon storage [1]: no recrystallization
- solubility ([2]; 2-propanol/heptane mixtures, organic solvent or mixture, 2-propanol, 95% 2-propanol/5% heptane, 70% 2-propanol/30% heptane, toluene, elevated temperatures (40° C.), read-out: Solubility (solvent addition), dissolution at elevated temperatures): > 200000 µg/mL
- solubility ([2]; organic solvent or mixture, 1,4-dioxane, 1-butanol, 2-methyl THF, 95% 2-propanol/5% water, acetone, acetonitrile, 95% acetonitrile/5% water, chloroform, DCM, DMSO, ethyl acetate (dry), ethanol, isopropyl acetate, methanol, MEK, MIBK, DMF, DMA, THF, 95% methanol/5% water, read-out: Solubility (solvent addition)): ≥ 200000 µg/mL
- solubility ([2]; organic solvent or mixture, 50% 2-propanol/50% heptane and 50% ethanol/50% heptane (% v/v), read-out: Solubility (solvent addition)): > 100000 µg/mL
- solubility ([2]; n-heptane, tert-butylmethyl ether, ethyl ether, water, 50% 2-propanol/50% water, 40% ethanol/60% water, read-out: Solubility (solvent addition)): < 10000 µg/mL

Structure (SMILES): CC(=O)c1nn(CC(=O)N2[C@H](C(=O)Nc3nc(Br)ccc3C)C[C@@]3(C)C[C@@H]23)c2c(C)cc(-c3cnc(C)nc3)cc12 [Compound 2]
- efflux ratio [3]: 1.2
- Caco2: A-B (Caco2): Caco2: A-B ~26 × 10^−6 cm/s
- solubility ([4]; FaSSIF, read-out: FaSSIF solubility): 2.6 µg/mL (≈ 0.00422 mM)
- solubility ([4]; FeSSIF, read-out: FeSSIF solubility): 4.7 µg/mL (≈ 0.00762 mM)
- Solution stress testing: Acid degradation ([5]; 0.1N HCl): Degradation observed
- Acid degradation, extent ([5]; 0.1N HCl, 7-days at RT): (~8% 7-days at RT)
- Solution stress testing: Base degradation ([5]; 0.1N NaOH): Degradation observed
- Base degradation, extent ([5]; 0.1N NaOH, 2-days at RT): (~18% 2-days at RT)
- Solution stress testing: Oxidative degradation ([5]; H2O2): Not susceptible to oxidation
- Assay ([6]; 5° C./NR RH, 1-month): 97.3%
- Total Impurities ([6]; 5° C./NR RH, 1-month): 1.9%
- Water Content ([6]; 5° C./NR RH, 1-month): 2.5%
- XRPD ([6]; 5° C./NR RH, 1-month): amorphous
- Assay ([6]; 5° C./NR RH, 3-month): 97.5%
- Total Impurities ([6]; 5° C./NR RH, 3-month): 1.7%
- Water Content ([6]; 5° C./NR RH, 3-month): 2.3%
- Assay ([6]; 5° C./NR RH, Time Zero): 97.2%
- Total Impurities ([6]; 5° C./NR RH, Time Zero): 1.9%
- Water Content ([6]; 5° C./NR RH, Time Zero): 1.9%
- XRPD ([6]; 5° C./NR RH, Time Zero): amorphous
- Assay ([6]; 25° C./60% RH, 1-month): 97.0%
- Total Impurities ([6]; 25° C./60% RH, 1-month): 1.9%
- Water Content ([6]; 25° C./60% RH, 1-month): 3.0%
- XRPD ([6]; 25° C./60% RH, 1-month): amorphous
- Assay ([6]; 25° C./60% RH, 2 weeks): 99.5%
- Total Impurities ([6]; 25° C./60% RH, 2 weeks): 1.9%
- Water Content ([6]; 25° C./60% RH, 2 weeks): 2.7%%
- Assay ([6]; 25° C./60% RH, 3-month): 97.8%
- Total Impurities ([6]; 25° C./60% RH, 3-month): 1.9%
- Water Content ([6]; 25° C./60% RH, 3-month): 3.1%
- Assay ([6]; 25° C./60% RH, Time Zero): 97.2%
- Total Impurities ([6]; 25° C./60% RH, Time Zero): 1.9%
- Water Content ([6]; 25° C./60% RH, Time Zero): 1.9%
- XRPD ([6]; 25° C./60% RH, Time Zero): amorphous
- Assay ([6]; 40° C./75% RH, 1-month): 97.5%
- Total Impurities ([6]; 40° C./75% RH, 1-month): 1.9%
- Water Content ([6]; 40° C./75% RH, 1-month): 4.0%
- XRPD ([6]; 40° C./75% RH, 1-month): amorphous
- Assay ([6]; 40° C./75% RH, 2 weeks): 99.8%
- Total Impurities ([6]; 40° C./75% RH, 2 weeks): 1.9%
- Water Content ([6]; 40° C./75% RH, 2 weeks): 3.5%
- Assay ([6]; 40° C./75% RH, 3-month): 96.4%
- Total Impurities ([6]; 40° C./75% RH, 3-month): 1.6%
- Water Content ([6]; 40° C./75% RH, 3-month): 3.8%
- Assay ([6]; 40° C./75% RH, Time Zero): 97.2%
- Total Impurities ([6]; 40° C./75% RH, Time Zero): 1.9%
- Water Content ([6]; 40° C./75% RH, Time Zero): 1.9%
- XRPD ([6]; 40° C./75% RH, Time Zero): amorphous
- Thermal Stability by TGA (Thermal stability by TGA): ~0.2% wt. loss to 150 °C
- Solid State Stress Testing: Chemical Stability ([7]; 70° C./75% RH): No degradation
- Solid State Stress Testing: Humidity ([7]; 70° C./75% RH): Amorphous crystallizes out
- Solid State Stress Testing: Photostability ([7]; exposure to UV visible): No light sensitivity
- BCS class [8]: BCS II compound
- Dose Number ([8]; for 125 mg): Dose Number (for 125 mg): 106-190

Structure (SMILES): CC(=O)c1nn(CC(=O)N2[C@H](C(=O)Nc3nc(Br)ccc3C)C[C@@]3(C)C[C@@H]23)c2ccc(-c3cnc(C)nc3)cc12 [Form O]
- Onset Temp: Melting ([9]; listed as Pattern O): Melting 179.6 °C
- Form after drying (de-solvation/dehydration) [10]: amorphous

Structure (SMILES): CC(=O)c1nn(CC(=O)N2[C@H](C(=O)Nc3nc(Br)ccc3C)C[C@@]3(C)C[C@@H]23)c2ccc(-c3cnc(C)nc3)cc12 [Form C]
- Interconversion: XRPD Result after heating ([11]; ~50° C.): Form C

Structure (SMILES): CC(=O)c1nn(CC(=O)N2[C@H](C(=O)Nc3nc(Br)ccc3C)C[C@@]3(C)C[C@@H]23)c2ccc(-c3cnc(C)nc3)cc12 [Form M]
- Relative stability in competitive slurry ([12]; Forms B and M, approximately 50° C.): most stable

Structure (SMILES): CC(=O)c1nn(CC(=O)N2[C@H](C(=O)Nc3nc(Br)ccc3C)C[C@@]3(C)C[C@@H]23)c2ccc(-c3cnc(C)nc3)cc12 [Form G]
- Interconversion: XRPD Result after heating ([11]; ~50° C.): Form G
- Interconversion: XRPD Result after heating ([11]; ~160° C.): Form M

Structure (SMILES): CC(=O)c1nn(CC(=O)N2[C@H](C(=O)Nc3nc(Br)ccc3C)C[C@@]3(C)C[C@@H]23)c2ccc(-c3cnc(C)nc3)cc12 [Form E]
- Interconversion: XRPD Result after heating ([11]; ~50° C.): Form G

Structure (SMILES): CC(=O)c1nn(CC(=O)N2[C@H](C(=O)Nc3nc(Br)ccc3C)C[C@@]3(C)C[C@@H]23)c2ccc(-c3cnc(C)nc3)cc12 [Disordered]
- Vapor stress: XRPD Result ([13]; EtOAc vapor): Form B
- Vapor stress: XRPD Result ([13]; MTBE vapor): Form C

Structure (SMILES): CC(=O)c1nn(CC(=O)N2[C@H](C(=O)Nc3nc(Br)ccc3C)C[C@@]3(C)C[C@@H]23)c2ccc(-c3cnc(C)nc3)cc12 [B, G, M]
- Interconversion: XRPD Result after slurry ([12]; EtOAc, ~50° C. Slurry): Form M*

Structure (SMILES): CC(=O)c1nn(CC(=O)N2[C@H](C(=O)Nc3nc(Br)ccc3C)C[C@@]3(C)C[C@@H]23)c2ccc(-c3cnc(C)nc3)cc12 [Form N]
- Onset Temp: Weak thermal events [9]: onset of 134.7 °C
- Form after drying (de-solvation/dehydration) [10]: Form P

Structure (SMILES): CC(=O)c1nn(CC(=O)N2[C@H](C(=O)Nc3nc(Br)ccc3C)C[C@@]3(C)C[C@@H]23)c2ccc(-c3cnc(C)nc3)cc12 [Form J + Form L]
- Interconversion: XRPD Result after heating ([11]; ~50° C.): Form G

Structure (SMILES): CC(=O)c1nn(CC(=O)N2[C@H](C(=O)Nc3nc(Br)ccc3C)C[C@@]3(C)C[C@@H]23)c2ccc(-c3cnc(C)nc3)cc12 [Form F + C]
- Interconversion: XRPD Result after heating ([11]; ~50° C.): Form F + C

Structure (SMILES): CC(=O)c1nn(CC(=O)N2[C@H](C(=O)Nc3nc(Br)ccc3C)C[C@@]3(C)C[C@@H]23)c2ccc(-c3cnc(C)nc3)cc12 [A vs. B]
- Interconversion: XRPD Result after slurry ([12]; ACN, RT Slurry): Form E
- Interconversion: XRPD Result after slurry ([12]; EtOAc, RT Slurry): Form B
- Interconversion: XRPD Result after slurry ([12]; EtOAc, ~50° C. Slurry): Form B

Structure (SMILES): CC(=O)c1nn(CC(=O)N2[C@H](C(=O)Nc3nc(Br)ccc3C)C[C@@]3(C)C[C@@H]23)c2ccc(-c3cnc(C)nc3)cc12 [A, B, G]
- Interconversion: XRPD Result after slurry ([12]; EtOAc, RT Slurry): Form B
